US20250170159A1, “COMPOSITIONS COMPRISING STING AGONISTS AND METHODS OF USE FOR TREATING GLIOMA” (ImmunoGenesis, Inc., priority 2023, published 2025)

How the values were obtained:
[1] = system: spontaneous unresected gliomas; settings: dogs; previously shown (ref 12); cited from earlier work
[2] = system: QPP8 glioma cells; settings: administered on days 14, 21, and 28
Description: The total amount of immune cells was quantified based on all live CD45+ cells and specifically on CD11b+Ly6C+ expression of mono-MDSCs. […] Each dot represents an analyzed tumor or LN. FIG. 16E: Expression of immunosuppressive markers CD206 and CD163 spanning myeloid populations and as a function of treatment. FIG. 16F: Myeloid PD-L1 expression on various immune lineages in tumors and LNs.

[3] = system: spontaneous unresected gliomas; test: Intratumoral delivery of STING agonist in spontaneous canine high-grade glioma; type: in vivo, dog
Method: A single ˜5 mm-diameter burr hole craniectomy was made at entry point determined by Brainsight Neuronavigation System.
A 100 uL-Hamilton syringe secured in a calibrated holder on an x-y stage containing 50 μL of Compound C at varying concentrations
Contrast enhancing target was selected using the MRI reconstruction.
Compound of Formula C was injected at a rate of 2 uL/minute.
Compound of Formula C was administered via repeated intratumoral injections up to 20 μg in 50 uL in a large animals (canines) with spontaneous unresected gliomas.

[4] = system: human U87 glioma cells; test: Humanized mice implanted with human U87 glioma cells; type: in vivo, mouse
Description: . (FIG. 15A) Multiplexed sequential immunofluorescence images of the STING expression at baseline in humanized mouse brain implanted with U87 glioma cells and collected at endpoint. The right image represents a high magnification of the white box drawn in the left image. The white arrows highlight CD31+STING+ vessels and green arrows highlight the CD163+STING+ macrophages. […] Scale bars: 500 μm (left panel) and 50 μm (right panel). A higher magnification image of a CD163+STING+ cell is represented at the upper right quadrant of the right image (scale bar: 20 μm). […] MFI, mean fluorescence intensity; h, human; TAM, tumor-associated macrophage; Mono, monocyte; PMN, […]; MDSC, myeloid-derived suppressor cell. […] The markers were assessed via Cytek Aurora flow cytometer and the CD45+CD11b+ population was analyzed for the indicated markers. *P<0.05; ** P<0.01; *** P<0.001; **** P<0.0001 by 2-tailed Student's t test (FIGS. 15E-H).
STING expression on human and murine glioma cells was analyzed (FIG. 15A). […] To evaluate whether this treatment induces an inflammatory response directed against the CNS, the mice were evaluated daily. […]

[5] = system: GL261 glioma cells; settings: FIG. 18B left panel; control MS 25 days
Description: FIG. 18A: Schema of the treatment of immunocompetent mice that underwent i.e. implantation of either GL261 or CT-2A glioma cells. […] FIG. 18C: Schema of the treatment of immunocompetent mice that underwent i.e. implantation of either CT-2A or QPP8v (subclone) glioma cells. […] FIG. 18E: Multiplexed sequential immunofluorescence images of untreated CT-2A gliomas (n=3). […] White boxes outline the portion shown at higher magnification in the right column of images. Scale bars: 500 μm (left 3 columns) and 50 μm (right column).

[6] = system: CT-2A glioma cells; settings: FIG. 18B right panel; control MS 28 days
Method: As such, we evaluated synergy in the CT-2A and QPP8v immunocompetent murine glioma models. […] To visualize TME features that would be reflective of response, the CT-2A model was treated on day 7 and during the therapeutic window, the activation of the STING pathway (i.e., p-IRF3) and the immune infiltration were analyzed with multiplexed SeqIF imaging.

[7] = target: T1, PD-1: PD-L1 (Homo sapiens, UniProt Q9NZQ7); test: PD-1 pathway blockade reporter cell assay, PD-L1+ cells; type: cell-based; settings: FIG. 9
T1 construct: expressed in transfected cells; host or cells: PD-1 expressing effector cells and PD-L1+ artificial antigen presenting cells
T1 sequence (Q9NZQ7 19-290): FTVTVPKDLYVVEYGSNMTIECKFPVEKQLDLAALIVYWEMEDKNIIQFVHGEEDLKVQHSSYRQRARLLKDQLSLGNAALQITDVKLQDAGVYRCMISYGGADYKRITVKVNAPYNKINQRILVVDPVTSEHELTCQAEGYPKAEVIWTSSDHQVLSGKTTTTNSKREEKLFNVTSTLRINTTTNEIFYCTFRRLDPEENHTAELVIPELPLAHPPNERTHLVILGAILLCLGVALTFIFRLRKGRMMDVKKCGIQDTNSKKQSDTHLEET
Method: (§1) A dose range of 50.000-0.015 nM was tested against PD-L1+ cells (FIG. 9A), PD-L2+ cells (FIG. 9B), and a 50:50 mixture of PD-L1+ and PD-L2+ cells (FIG. 9C). Nonlinear regression was used to generate best-fit curves in GraphPad Prism.
(§2) The ability of Ab-27907 to interrupt the PD-1 pathway through binding of the ligands PD-L1 and PD-L2 was tested in a reporter cell system. In this assay, PD-1 expressing effector cells are incubated with artificial antigen presenting cells expressing PD-L1 or PD-L2 with a T cell receptor (TCR). Without any antibodies, luminescence activity is low, as PD-1 binds its ligands, preventing TCR engagement and production of luciferase.

[8] = target: T2, PD-1: PD-L2 (Homo sapiens, UniProt Q9BQ51); test: PD-1 pathway blockade reporter cell assay, PD-L2+ cells; type: cell-based; settings: FIG. 9
T2 construct: expressed in transfected cells; host or cells: PD-1 expressing effector cells and PD-L2+ artificial antigen presenting cells
T2 sequence (Q9BQ51 20-273): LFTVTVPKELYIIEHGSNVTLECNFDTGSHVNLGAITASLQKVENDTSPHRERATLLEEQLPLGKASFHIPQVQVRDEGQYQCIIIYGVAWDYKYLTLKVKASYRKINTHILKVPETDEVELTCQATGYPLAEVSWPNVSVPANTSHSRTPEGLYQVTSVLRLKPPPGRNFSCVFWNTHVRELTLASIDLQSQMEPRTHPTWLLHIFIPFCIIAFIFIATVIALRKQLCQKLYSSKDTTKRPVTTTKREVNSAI
Method: as §1, §2

[9] = system: U2940 human B-cell lymphoma, 8505C human thyroid carcinoma, and B16F10-PDL2 murine melanoma tumor cell lines; test: ADCC reporter cell assay; type: cell-based; settings: FIG. 10
Method: (§3) A dose range was tested in ADCC (FIGS. 10A, 10C, and 10E) and ADCP FIGS. 10B, 10C, and 10F) assays against U2940 human B-cell lymphoma (FIGS. 10A and 10B), 8505C human thyroid carcinoma (FIGS. 10C and 10D), and B16F10-PDL2 murine melanoma (FIGS. 10E, and 10F) tumor cell lines.

[10] = system: U2940 human B-cell lymphoma, 8505C human thyroid carcinoma, and B16F10-PDL2 murine melanoma tumor cell lines; test: ADCP reporter cell assay; type: cell-based; settings: FIG. 10
Method: as §3

[11] = system: TS/A tumor; test: TS/A mouse model of mammary carcinoma; settings: versus control group
[12] = system: B16F10-PDL2 tumor; test: B16F10-PDL2 melanoma tumor-bearing mice; settings: monotherapy, first 2 weeks
Description: Left: Mean±SEM tumor volume (mm^3) is plotted on the y-axis against days post tumor inoculation on the x-axis. Right: Kaplan Meier plots of survival.

Nc1ncnc2c1ccn2[C@@H]1O[C@@H]2COP(=O)(S)O[C@@H]3[C@H](O)[C@@H](COP(=O)(S)O[C@H]2[C@H]1O)O[C@H]3n1cnc2c(N)ncnc21 (stereo partly drawn) [Compound 8779]
radiographic regression in spontaneously arising glioblastomas [1]: induces radiographic regression | therapeutic outcome [2]: curative | median survival (MS) ([2]; control MS=103 days): undefined

Nc1ncnc2c1ccn2[C@@H]1O[C@@H]2COP(=O)(S)O[C@@H]3[C@H](O)[C@@H](COP(=O)(S)O[C@H]2[C@H]1O)O[C@H]3n1cnc2c(N)ncnc21 (stereo partly drawn) [Compound C]
radiographic responses in spontaneously arising high-grade gliomas ([3]; dog, single injection): can produce radiographic responses | MTD ([3]; repeated intratumoral injections in 50 uL, canines with unresected gliomas): 15 to 20 µg

Nc1ncnc2c1ncn2[C@@H]1O[C@@H]2COP(O)(=S)O[C@@H]3C(O)[C@@H](COP(O)(=S)O[C@H]2[C@H]1O)O[C@H]3n1cnc2c(N)ncnc21 (stereo partly drawn) [MLRR-S2-CDA, reference compound]
survival of U87 tumor-bearing animals ([4]; both P<0.0001): significantly extended survival | median survival (MS) ([4]; treated on days 5, 10, and 15, control MS 26.5 days): 35 days

C[C@H](NC(=O)/C(C#N)=C/c1cccc(Br)n1)c1ccccc1 [WP1066, reference compound]
median survival (MS) [5]: 30 days | median survival (MS) [6]: 28 days

B1: Ab-27907: dual functioning PD-L1/PD-L2 monoclonal antibody; Fc point mutations enhance cell-mediated effector functions (antibody, V domains shown)
VH: QVQLVESGGGVIQPGRSLRLSCAASGFTFSAYLMHWVRQAPGKGLEWVAAIGYDGMNKYYADSVKGRFTISRDNSKNTLYLQMNSLRAEDTAVYYCARAGIEYSYAYTDYWGQGTLVTVSS
VL: EIVLTQSPGTLSLSPGERATLSCRASQFVYSSDLAWYQQKPGQAPRLLIYGASARAAGIPDRFSGSGSGTDFTLTISRLEPEDFAVYYCMQFGWWPPRTFGGGTKVEIK
blockade of PD-1: PD-L1 [7]: blocks PD-1: PD-L1 as well as pembrolizumab | blockade of PD-1: PD-L2 [8]: additionally blocks PD-1: PD-L2 | capacity to induce ADCC [9]: robust activity | capacity to induce ADCP [10]: robust activity | survival [11]: significant extended survival | tumor growth [12]: significantly inhibited tumor growth
